Tested on: gray mold fungus (Botrytis cinerea)
Assay: Cucumber leaf disk preventive test against gray mold fungus
Type: in vivo
Details: 15° C., four days
Experimental: True leaf of cucumber is punched out with cork borer to 13 mm in diameter to prepare a leaf disk. In 24 well microwell plate that is dispensed with 1 ml 0.8% water agar, the leaf disk is placed such that the upper side of the leaf is in an upward direction. Thereto is added 20 micro liter a testing solution prepared by mixing a dimethyl sulfoxide solution of the present compound (racemate) and a dimethyl sulfoxide solution of flutolanil to a predetermined concentration to treat the leaf disk. After confirming that the testing medical solution is dried, conidium of gray mold fungus (Botrytis cinerea) is suspended into potato dextrose broth (DIFCO) in a density of about 10^5 conidium/mL and is then subjected to a spray inoculation. After leaving to stand the leaf disk in a growth chamber set up at 15° C. for four days, an onset area on the leaf is measured and then calculated an onset area rate (hereinafter, referred to as an onset area rate of treated group). The same operation is carried out with 20 micro liter water instead of 20 micro liter a testing medicine solution to calculate an onset area rate (hereinafter, referred to an onset area rate of non-treated group). A preventive value is calculated from the above onset area rate of treated group and the onset area rate of non-treated group by the following equation: Preventive value(%)=100×(A−B)/A wherein […] The same operations as described in Test Example 1 are carried out with zoxamide instead of flutolanil, so as to calculate a preventive value. Also for comparison, the same operations as described in Test Example 1 are carried out with the exception that the testing medicine solution is substituted with a predetermined concentration of each dimethyl sulfoxide solution of the present compound (racemate) or zoxamide, so as to calculate respective preventive values. For comparison, the same operations as described in Test Example 1 are carried out with the exception that the testing medicine solution is substituted with a predetermined concentration of a dimethyl sulfoxide solution of flutolanil, so as to calculate a preventive value.

Structure (SMILES) | preventive value (%) (flutolanil alone 0.5 ppm) | preventive value (%) (flutolanil alone 5.0 ppm) | preventive value (%) (zoxamide alone 0.5 ppm) | preventive value (%) (zoxamide alone 5.0 ppm)
CC(C)Oc1cccc(NC(=O)c2ccccc2C(F)(F)F)c1 [flutolanil] | 10% | 15% | – | –
CCC(C)(NC(=O)c1cc(Cl)c(C)c(Cl)c1)C(=O)CCl (stereo not shown) [zoxamide] | – | – | 10% | 15%

From patent publication US8940795B2, “Plant disease controlling composition and method for controlling plant disease” (Sumitomo Chemical Company, Limited, priority 2010, dated 2015)
